Laboratory results from ChEMBL document CHEMBL1135818, “A new, potent urotensin II receptor peptide agonist containing a Pen residue at the disulfide bridge” (J Med Chem, 2002).
Bridge positions count the residues as written; N and C are the ends. Square brackets hold non-standard residues; d marks the D form. Peptide text beside a SMILES is read from it. dPen = CC(C)(S)[C@@H](N)C(=O)O; Pen = CC(C)(S)[C@H](N)C(=O)O

target: T1, Urotensin-2 receptor (Homo sapiens) (UniProt Q9UKP6); conditions: CHO-K1
T1 sequence (whole entry): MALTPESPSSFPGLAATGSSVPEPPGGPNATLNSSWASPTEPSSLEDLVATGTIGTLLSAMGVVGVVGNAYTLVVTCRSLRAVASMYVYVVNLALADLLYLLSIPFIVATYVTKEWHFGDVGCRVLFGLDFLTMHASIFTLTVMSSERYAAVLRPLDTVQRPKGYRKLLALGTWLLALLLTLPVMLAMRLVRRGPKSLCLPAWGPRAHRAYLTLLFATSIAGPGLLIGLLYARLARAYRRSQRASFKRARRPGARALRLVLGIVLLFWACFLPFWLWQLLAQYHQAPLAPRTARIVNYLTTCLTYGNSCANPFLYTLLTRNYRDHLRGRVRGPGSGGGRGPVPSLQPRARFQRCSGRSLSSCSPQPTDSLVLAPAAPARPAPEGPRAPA

Row | pD2 | Compound
1 | 6.7 | CC(C)[C@H](NC(=O)[C@@H]1NC(=O)[C@H](Cc2ccc(O)cc2)NC(=O)[C@H](CCCCN)NC(=O)[C@H](Cc2c[nH]c3ccccc23)NC(=O)[C@H](Cc2ccccc2)NC(=O)[C@H](NC(=O)[C@@H](N)CC(=O)O)CSSC1(C)C)C(=O)O
2 | 8.6 | CC(C)[C@H](NC(=O)[C@@H]1CSSC[C@@H](NC(=O)[C@@H](N)CC(=O)O)C(=O)N[C@@H](Cc2ccccc2)C(=O)N[C@@H](Cc2c[nH]c3ccccc23)C(=O)N[C@@H](CCCCN)C(=O)N[C@@H](Cc2ccc(O)cc2)C(=O)N1)C(=O)O (H-D[dC]FWKYCV-OH; disulfide 2-7)
3 | 9.6 | CC(C)[C@H](NC(=O)[C@@H]1CSSC(C)(C)[C@@H](NC(=O)[C@@H](N)CC(=O)O)C(=O)N[C@@H](Cc2ccccc2)C(=O)N[C@@H](Cc2c[nH]c3ccccc23)C(=O)N[C@@H](CCCCN)C(=O)N[C@@H](Cc2ccc(O)cc2)C(=O)N1)C(=O)O (H-D[dPen]FWKYCV-OH; disulfide 2-7)
4 | 8.2 | CC(C)[C@H](NC(=O)[C@@H]1NC(=O)[C@H](Cc2ccc(O)cc2)NC(=O)[C@H](CCCCN)NC(=O)[C@H](Cc2c[nH]c3ccccc23)NC(=O)[C@H](Cc2ccccc2)NC(=O)[C@H](NC(=O)[C@@H](N)CC(=O)O)C(C)(C)SSC1(C)C)C(=O)O (H-D[dPen]FWKY[dPen]V-OH; disulfide 2-7)

Row | Compound | pD2
5 | CC(C)[C@H](NC(=O)[C@@H]1CSSC[C@@H](NC(=O)[C@H](CC(=O)O)NC(=O)[C@H]2CCCN2C(=O)[C@@H](NC(=O)[C@@H](N)CCC(=O)O)[C@@H](C)O)C(=O)N[C@H](Cc2ccccc2)C(=O)N[C@@H](Cc2c[nH]c3ccccc23)C(=O)N[C@H](CCCCN)C(=O)N[C@@H](Cc2ccc(O)cc2)C(=O)N1)C(=O)O | 8.3

target: T2, Urotensin-2 receptor (Homo sapiens, UniProt Q9UKP6); test: Ability to displace radioligand [125I]Tyr-hU-II from human recombinant Urotensin 2 receptor in CHO-K1 cells; type: cell-based; conditions: not given
T2 sequence (Q9UKP6 whole entry): T1 sequence (whole entry)

Row | Log Ki | Compound
6 | -7.9 | CC(C)[C@H](NC(=O)[C@H]1NC(=O)[C@H](Cc2ccc(O)cc2)NC(=O)[C@H](CCCCN)NC(=O)[C@H](Cc2c[nH]c3ccccc23)NC(=O)[C@H](Cc2ccccc2)NC(=O)[C@@H](NC(=O)[C@@H](N)CC(=O)O)CSSC1(C)C)C(=O)O
7 | -8.9 | CC(C)[C@H](NC(=O)[C@H]1NC(=O)[C@H](Cc2ccc(O)cc2)NC(=O)[C@H](CCCCN)NC(=O)[C@H](Cc2c[nH]c3ccccc23)NC(=O)[C@H](Cc2ccccc2)NC(=O)[C@@H](NC(=O)[C@@H](N)CC(=O)O)C(C)(C)SSC1(C)C)C(=O)O (H-D[Pen]FWKY[Pen]V-OH; disulfide 2-7)
